Data from ChEMBL document CHEMBL5584333, “Evo312: An Evodiamine Analog and Novel PKCβI Inhibitor with Potent Antitumor Activity in Gemcitabine-Resistant Pancreatic Cancer” (J Med Chem, 2024).
Calls of active or inactive are those of the source. No cut-off for these calls is given here.

Legend:
[1] = molecular target: Protein kinase C beta type (Homo sapiens, UniProt P05771); assay: Induction of thermal stabilization of PKCbeta1 in human Gemcitabine-resistant PANC-1 cells at 10 uM incubated for 1 hrs at 40 to 65 degreeC by CETSA; type: cell-based
[2] = tested on: Gemcitabine-resistant PANC-1; assay: Cell cycle distribution in human Gemcitabine-resistant PANC-1 cells assessed as G0-G1 phase cells at 160 nM incubated for 24 hrs by RNase/PI staining based flow cytometric analysis (reference value: 45.21 %); type: functional
[3] = molecular target: Serine/threonine-protein kinase AKT (Homo sapiens) (UniProt P31751+Q9Y243+P31749); assay: Inhibition of Akt phosphorylation in human Gemcitabine-resistant PANC-1 cells at 160 nM incubated for 24 hrs by phospho-kinase array analysis; type: cell-based
[4] = Toxicity in male BALB/c nude mouse xenografted with human Gemcitabine-resistant PANC-1 cells at 10 mg/kg, ip administered three times in a week for 20 days; type: organism-based; details: in vivo, 480 h, time 20 day
[5] = tested on: Gemcitabine-resistant PANC-1; assay: Downregulation of p-STAT5 expression in human Gemcitabine-resistant PANC-1 cells at 40 to 160 nM incubated for 24 hrs by Western blotting; type: functional, cell-based; details: dose 40-160 nM
[6] = tested on: Gemcitabine-resistant PANC-1; assay: Downregulation of p-PRAS40 expression in human Gemcitabine-resistant PANC-1 cells at 40 to 160 nM incubated for 24 hrs by Western blotting; type: functional, cell-based; details: dose 40-160 nM
[7] = tested on: Gemcitabine-resistant PANC-1; assay: Cell cycle distribution in human Gemcitabine-resistant PANC-1 cells assessed as sub-G1 phase cells at 80 nM incubated for 24 hrs by RNase/PI staining based flow cytometric analysis (reference value: 0.30 %); type: functional
[8] = tested on: Gemcitabine-resistant PANC-1; assay: Downregulation of p-GSK3beta expression in human Gemcitabine-resistant PANC-1 cells at 40 to 160 nM incubated for 24 hrs by Western blotting; type: functional, cell-based; details: dose 40-160 nM
[9] = tested on: Gemcitabine-resistant PANC-1; assay: Induction of cell cycle arrest in human Gemcitabine-resistant PANC-1 cells assessed as downregulation of Cdc2 protein expression level at 40 to 160 nM incubated for 24 hrs by Western blot analysis; type: functional, cell-based; details: dose 40-160 nM
[10] = tested on: Gemcitabine-resistant PANC-1; assay: Effect on STAT5 expression in human Gemcitabine-resistant PANC-1 cells at 40 to 160 nM by Western blot analysis; type: functional, cell-based; details: dose 40-160 nM
[11] = tested on: Gemcitabine-resistant PANC-1; assay: Downregulation of PKCalpha expression in human Gemcitabine-resistant PANC-1 cells at 40 to 160 nM incubated for 24 hrs by Western blotting; type: functional, cell-based; details: dose 40-160 nM
[12] = tested on: Gemcitabine-resistant PANC-1; assay: Cell cycle distribution in human Gemcitabine-resistant PANC-1 cells assessed as S phase cells at 160 nM incubated for 24 hrs by RNase/PI staining based flow cytometric analysis (reference value: 17.32 %); type: functional
[13] = tested on: Gemcitabine-resistant PANC-1; assay: Induction of apoptosis in human Gemcitabine-resistant PANC-1 cells assessed as total cell death at 80 nM incubated for 48 hrs by Annexin V-FITC/PI staining based flow cytometric analysis relative to control; type: functional
[14] = tested on: Gemcitabine-resistant PANC-1; assay: Downregulation of PKCepsilon expression in human Gemcitabine-resistant PANC-1 cells at 40 to 160 nM incubated for 24 hrs by Western blotting; type: functional, cell-based; details: dose 40-160 nM
[15] = tested on: Gemcitabine-resistant PANC-1; assay: Downregulation of p-p70S6K expression in human Gemcitabine-resistant PANC-1 cells at 40 to 160 nM incubated for 24 hrs by Western blotting; type: functional, cell-based; details: dose 40-160 nM
PANC-1 = assay: Antiproliferative activity against human PANC-1 cells transfected with PKCbeta1 siRNA assessed as reduction in cell viability at 0.016 to 10 uM incubated for 72 hrs by MTT assay; type: functional, cell-based; details: dose 0.016-10 µM
[16] = tested on: Gemcitabine-resistant PANC-1; assay: Induction of apoptosis in human Gemcitabine-resistant PANC-1 cells assessed as upregulation of cleaved caspase-3 level at 160 nM incubated for 48 hrs by Western blot analysis; type: functional, cell-based
[17] = tested on: Gemcitabine-resistant PANC-1; assay: Induction of apoptosis in human Gemcitabine-resistant PANC-1 cells assessed as total cell death at 160 nM incubated for 48 hrs by Annexin V-FITC/PI staining based flow cytometric analysis relative to control; type: functional
[18] = molecular target: Glycogen synthase kinase-3 beta (Homo sapiens) (UniProt P49841); assay: Inhibition of GSK3beta phosphorylation in human Gemcitabine-resistant PANC-1 cells at 160 nM incubated for 24 hrs by phospho-kinase array analysis; type: cell-based
[19] = tested on: Gemcitabine-resistant PANC-1; assay: In vivo inhibition of PKCbeta1 in male BALB/c nude mouse xenografted with human Gemcitabine-resistant PANC-1 cells assessed as reduction in PKCbeta1 expression in tumor at 10 mg/kg, ip administered three times in a week for 20 days by Western blot analysis; type: functional, organism-based; details: time 20.0 day
[20] = molecular target: T1, Signal transducer and activator of transcription 5A (Homo sapiens) (UniProt P42229); assay: Inhibition of STAT5 phosphorylation in human Gemcitabine-resistant PANC-1 cells at 160 nM incubated for 24 hrs by phospho-kinase array analysis; type: cell-based
T1 sequence (whole entry): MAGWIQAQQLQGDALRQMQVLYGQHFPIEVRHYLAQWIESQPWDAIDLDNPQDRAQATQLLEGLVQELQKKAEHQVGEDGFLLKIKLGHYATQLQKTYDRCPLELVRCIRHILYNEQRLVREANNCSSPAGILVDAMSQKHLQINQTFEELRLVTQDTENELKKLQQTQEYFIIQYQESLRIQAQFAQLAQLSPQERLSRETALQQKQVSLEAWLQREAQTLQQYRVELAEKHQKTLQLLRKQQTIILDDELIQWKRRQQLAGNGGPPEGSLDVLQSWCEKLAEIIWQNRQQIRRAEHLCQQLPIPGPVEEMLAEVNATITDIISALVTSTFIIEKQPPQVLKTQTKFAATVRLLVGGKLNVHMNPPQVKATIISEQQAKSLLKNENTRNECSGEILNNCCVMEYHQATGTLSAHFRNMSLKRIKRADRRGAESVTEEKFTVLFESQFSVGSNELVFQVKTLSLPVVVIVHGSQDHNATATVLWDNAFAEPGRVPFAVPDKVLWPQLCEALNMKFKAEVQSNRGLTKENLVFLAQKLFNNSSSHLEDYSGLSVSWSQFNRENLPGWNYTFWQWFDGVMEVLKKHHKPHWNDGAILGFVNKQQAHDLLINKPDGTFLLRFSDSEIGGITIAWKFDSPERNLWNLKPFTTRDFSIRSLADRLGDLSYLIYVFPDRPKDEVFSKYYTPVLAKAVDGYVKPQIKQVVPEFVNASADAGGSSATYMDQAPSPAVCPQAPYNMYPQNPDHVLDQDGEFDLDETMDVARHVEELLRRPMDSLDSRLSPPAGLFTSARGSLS

[21] = tested on: Gemcitabine-resistant PANC-1; assay: Downregulation of PKCbeta1expression in human Gemcitabine-resistant PANC-1 cells at 100 nM incubated for 24 hrs by Western blot analysis; type: functional, cell-based

Glycogen synthase kinase-3 beta (Homo sapiens), sequence (P49841 whole entry, looked up): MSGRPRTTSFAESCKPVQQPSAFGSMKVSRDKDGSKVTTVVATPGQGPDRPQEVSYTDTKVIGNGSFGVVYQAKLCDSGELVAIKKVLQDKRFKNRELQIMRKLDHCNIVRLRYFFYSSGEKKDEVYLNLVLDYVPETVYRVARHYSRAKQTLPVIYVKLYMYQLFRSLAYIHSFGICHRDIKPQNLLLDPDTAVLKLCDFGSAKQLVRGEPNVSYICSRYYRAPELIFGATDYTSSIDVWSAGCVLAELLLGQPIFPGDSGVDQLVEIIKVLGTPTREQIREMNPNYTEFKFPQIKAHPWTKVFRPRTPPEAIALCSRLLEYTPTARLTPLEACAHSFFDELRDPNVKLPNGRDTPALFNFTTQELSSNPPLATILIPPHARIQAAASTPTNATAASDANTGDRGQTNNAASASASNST
Serine/threonine-protein kinase AKT (Homo sapiens), sequence (P31749 whole entry, looked up): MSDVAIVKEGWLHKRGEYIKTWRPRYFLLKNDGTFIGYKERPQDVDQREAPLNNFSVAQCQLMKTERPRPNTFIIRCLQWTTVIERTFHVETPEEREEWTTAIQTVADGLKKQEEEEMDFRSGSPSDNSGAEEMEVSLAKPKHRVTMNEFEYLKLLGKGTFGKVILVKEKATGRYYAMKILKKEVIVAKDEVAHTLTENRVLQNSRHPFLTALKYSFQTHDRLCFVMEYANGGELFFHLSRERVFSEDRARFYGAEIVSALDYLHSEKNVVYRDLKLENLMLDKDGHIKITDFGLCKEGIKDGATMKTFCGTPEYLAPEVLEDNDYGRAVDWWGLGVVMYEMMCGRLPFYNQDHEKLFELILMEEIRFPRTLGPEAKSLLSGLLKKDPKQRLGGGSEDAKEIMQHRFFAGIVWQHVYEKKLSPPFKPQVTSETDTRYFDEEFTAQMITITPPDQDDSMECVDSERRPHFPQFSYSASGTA
Serine/threonine-protein kinase AKT (Homo sapiens), sequence (P31751 whole entry, looked up): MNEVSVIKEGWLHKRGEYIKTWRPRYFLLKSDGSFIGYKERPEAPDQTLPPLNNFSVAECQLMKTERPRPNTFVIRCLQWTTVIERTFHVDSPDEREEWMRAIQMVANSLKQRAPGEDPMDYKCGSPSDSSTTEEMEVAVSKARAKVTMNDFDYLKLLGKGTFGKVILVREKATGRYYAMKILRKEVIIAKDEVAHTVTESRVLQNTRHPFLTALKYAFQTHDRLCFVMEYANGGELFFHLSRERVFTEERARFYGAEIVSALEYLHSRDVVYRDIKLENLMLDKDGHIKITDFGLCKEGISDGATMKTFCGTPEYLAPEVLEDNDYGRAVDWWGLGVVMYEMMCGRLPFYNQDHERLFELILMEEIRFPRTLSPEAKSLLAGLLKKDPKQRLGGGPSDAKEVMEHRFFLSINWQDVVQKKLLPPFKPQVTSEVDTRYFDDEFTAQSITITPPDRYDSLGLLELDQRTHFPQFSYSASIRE
Serine/threonine-protein kinase AKT (Homo sapiens), sequence (Q9Y243 whole entry, looked up): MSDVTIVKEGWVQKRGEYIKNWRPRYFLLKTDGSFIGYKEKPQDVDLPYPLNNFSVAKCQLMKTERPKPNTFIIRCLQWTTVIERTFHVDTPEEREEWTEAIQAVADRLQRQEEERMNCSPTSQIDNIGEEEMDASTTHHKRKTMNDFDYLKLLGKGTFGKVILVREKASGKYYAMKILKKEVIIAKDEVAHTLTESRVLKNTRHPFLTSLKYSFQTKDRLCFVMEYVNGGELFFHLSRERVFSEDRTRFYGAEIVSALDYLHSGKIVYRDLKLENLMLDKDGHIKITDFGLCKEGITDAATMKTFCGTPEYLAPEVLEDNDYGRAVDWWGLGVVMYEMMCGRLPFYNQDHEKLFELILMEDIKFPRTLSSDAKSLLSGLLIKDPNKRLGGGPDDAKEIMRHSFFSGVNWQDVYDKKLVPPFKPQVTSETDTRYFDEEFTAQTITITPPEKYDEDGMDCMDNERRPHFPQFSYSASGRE
Protein kinase C beta type, sequence (P05771 2-671 limits assumed): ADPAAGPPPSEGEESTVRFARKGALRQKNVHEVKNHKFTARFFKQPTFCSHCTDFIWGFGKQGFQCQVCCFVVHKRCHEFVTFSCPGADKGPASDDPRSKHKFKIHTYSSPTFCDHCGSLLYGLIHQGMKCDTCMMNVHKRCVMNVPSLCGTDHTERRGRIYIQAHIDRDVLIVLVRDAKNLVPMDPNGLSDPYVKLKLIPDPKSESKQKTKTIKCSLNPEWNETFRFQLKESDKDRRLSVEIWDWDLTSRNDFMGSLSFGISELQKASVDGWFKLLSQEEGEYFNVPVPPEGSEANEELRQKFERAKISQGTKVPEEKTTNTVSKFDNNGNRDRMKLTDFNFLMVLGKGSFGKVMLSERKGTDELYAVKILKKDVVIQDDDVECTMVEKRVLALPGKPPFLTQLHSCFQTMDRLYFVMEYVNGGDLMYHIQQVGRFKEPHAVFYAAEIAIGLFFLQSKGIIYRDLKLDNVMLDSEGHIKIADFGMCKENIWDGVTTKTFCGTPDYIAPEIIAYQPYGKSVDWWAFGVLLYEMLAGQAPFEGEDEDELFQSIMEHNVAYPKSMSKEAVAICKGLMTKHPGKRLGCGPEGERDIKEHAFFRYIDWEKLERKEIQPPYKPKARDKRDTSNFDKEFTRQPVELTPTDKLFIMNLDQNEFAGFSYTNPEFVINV

SMILES: CC(=O)Oc1ccc2[nH]c3c(c2c1)CCN1C(=O)c2ccccc2N(C)[C@H]31
- Activity [1]: Active
- Activity [2]: 26.28%
- inhibition [3]: Active
- Activity [4]: Non-Toxic
- Activity [5]: Active
- Activity [6]: Active
- Activity [7]: 1.31%
- Activity [8]: Active
- Activity [9]: Active
- Activity [10]: inactive
- Activity [11]: inactive
- Activity [12]: 14.05%
- Activity [13]: 20.63%
- Activity [14]: inactive
- Activity [15]: Active
- Activity (PANC-1): inactive
- Activity [16]: Active
- Activity [17]: 24.95%
- inhibition [18]: Active
- inhibition [19]: Active
- inhibition [20]: Active
- Activity [21]: Active
